Source: ChEMBL document CHEMBL3832031, “DailyMed|setid=d3c528d2-429d-4f37-9ebf-eee8b9fd3050 | TRENTINOIN - tretinoin gel| Oceanside Pharmaceuticals”

Assays:
[1] = Bioavailability of Tretinoin following multiple topical administration of 0.1 % tretinoin gel to 44 male and female subjects.; format: ADME, organism-based; details: both, human, in vivo, topical or ocular, dosed compound id 14, dosed compound name TRETINOIN, gender male and female, regimen Multiple dose, study dosing duration 28 days, tissue Plasma
[2] = Bioavailability of Tretinoin following single topical administration of 0.1 % tretinoin gel to 44 male and female subjects.; format: ADME, organism-based; details: both, human, in vivo, topical or ocular, dosed compound id 14, dosed compound name TRETINOIN, gender male and female, regimen Single dose, study dosing duration 28 days, tissue Plasma

- bioavailability [1]: 1.41%
- bioavailability [2]: 0.82%
SMILES: CC1=C(/C=C/C(C)=C/C=C/C(C)=C/C(=O)O)C(C)(C)CCC1 [TRETINOIN]
